Data reported in PubChem BioAssay (NCI).
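Results reflect a 48-hour exposure of cells in 96-well plates to compound at five concentrations. GI50: concentration for 50% inhibition of growth. TGI is the concentration that stops growth completely.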

Columns and labels:
Assay in all cases: NCI-60 cell line screen, 48 h; in the data active = GI50 below about 0.43 µM; inactive = the rest
SW-620 colon = test system: SW-620 colon
SNB-75 CNS = test system: SNB-75 CNS
M14 melanoma = test system: M14 melanoma
OVCAR-8 ovarian = test system: OVCAR-8 ovarian
EKVX NSCLC = test system: EKVX NSCLC
UACC-62 melanoma = test system: UACC-62 melanoma
IGROV1 ovarian = test system: IGROV1 ovarian
KM12 colon = test system: KM12 colon
COLO 205 colon = test system: COLO 205 colon
MALME-3M melanoma = test system: MALME-3M melanoma

COc1ccc(CC(C)NCC(O)c2ccc(O)c(NC=O)c2)cc1 (configuration not stated)
> 100 µM: TGI (SW-620 colon) | TGI (SNB-75 CNS) | TGI (M14 melanoma) | TGI (OVCAR-8 ovarian) | TGI (EKVX NSCLC) | TGI (UACC-62 melanoma) | TGI (IGROV1 ovarian) | TGI (KM12 colon) | TGI (COLO 205 colon) | TGI (MALME-3M melanoma)

CCOc1ccc2c(c1)[n+]([O-])c(C(N)=O)c(N)[n+]2[O-]
> 100 µM: TGI (SW-620 colon) | TGI (SNB-75 CNS) | TGI (M14 melanoma) | TGI (OVCAR-8 ovarian) | TGI (EKVX NSCLC) | TGI (IGROV1 ovarian) | TGI (KM12 colon) | TGI (COLO 205 colon) | TGI (MALME-3M melanoma)

[Cu].c1ccc2c(c1)C1=NC2=NC2=NC(=NC3=NC(=NC4=NC(=N1)c1ccccc14)c1ccccc13)c1ccccc12
inactive: GI50 (SW-620 colon) > 100 µM | GI50 (SNB-75 CNS) > 100 µM | GI50 (M14 melanoma) > 100 µM | GI50 (OVCAR-8 ovarian) > 100 µM | GI50 (EKVX NSCLC) > 100 µM | GI50 (UACC-62 melanoma) > 100 µM | GI50 (IGROV1 ovarian) > 100 µM | GI50 (KM12 colon) > 100 µM | GI50 (MALME-3M melanoma) > 100 µM
> 100 µM: TGI (SW-620 colon) | TGI (SNB-75 CNS) | TGI (M14 melanoma) | TGI (OVCAR-8 ovarian) | TGI (EKVX NSCLC) | TGI (UACC-62 melanoma) | TGI (IGROV1 ovarian) | TGI (KM12 colon) | TGI (MALME-3M melanoma)

CCn1c(-c2nonc2N)nc2cnc(Oc3cccc(NC(=O)c4ccc(OCCN5CCOCC5)cc4)c3)cc21
inactive: GI50 (SW-620 colon) 4.57 µM | GI50 (M14 melanoma) 12.7 µM | GI50 (OVCAR-8 ovarian) 6.25 µM | GI50 (EKVX NSCLC) 0.752 µM | GI50 (UACC-62 melanoma) 6.39 µM | GI50 (IGROV1 ovarian) 2.98 µM | GI50 (KM12 colon) 7.63 µM | GI50 (COLO 205 colon) 3.34 µM | GI50 (MALME-3M melanoma) 4.14 µM
> 20.3 µM: TGI (IGROV1 ovarian)
> 25 µM: TGI (SW-620 colon) | TGI (M14 melanoma) | TGI (OVCAR-8 ovarian) | TGI (EKVX NSCLC) | TGI (UACC-62 melanoma) | TGI (KM12 colon) | TGI (COLO 205 colon) | TGI (MALME-3M melanoma)
active: GI50 (SNB-75 CNS) 0.0594 µM
7.65 µM: TGI (SNB-75 CNS)

CC(C)N1CCOC(c2ccc(O)c(O)c2)C1 (configuration not stated)
> 100 µM: TGI (SW-620 colon) | TGI (SNB-75 CNS) | TGI (M14 melanoma) | TGI (OVCAR-8 ovarian) | TGI (EKVX NSCLC) | TGI (UACC-62 melanoma) | TGI (IGROV1 ovarian) | TGI (KM12 colon) | TGI (COLO 205 colon) | TGI (MALME-3M melanoma)

O=C(O)c1c2c(c(O)c3c1CN(C1CCCCC1)CO3)OCN(C1CCCCC1)C2
> 100 µM: TGI (SNB-75 CNS) | TGI (M14 melanoma) | TGI (OVCAR-8 ovarian) | TGI (EKVX NSCLC) | TGI (UACC-62 melanoma) | TGI (IGROV1 ovarian) | TGI (KM12 colon) | TGI (COLO 205 colon) | TGI (MALME-3M melanoma)
52.5 µM: TGI (SW-620 colon)

Cc1cccc(-c2nc(=S)[nH][nH]2)c1
> 100 µM: TGI (SW-620 colon) | TGI (SNB-75 CNS) | TGI (M14 melanoma) | TGI (OVCAR-8 ovarian) | TGI (EKVX NSCLC) | TGI (UACC-62 melanoma) | TGI (IGROV1 ovarian) | TGI (KM12 colon) | TGI (COLO 205 colon) | TGI (MALME-3M melanoma)

O=C(O)CN(CCN(CC(=O)O)CC(=O)O)CCN(CC(=O)O)CC(=O)O
21.5 µM: TGI (M14 melanoma)
7.86 µM: TGI (SNB-75 CNS)
9.91 µM: TGI (EKVX NSCLC)
37.6 µM: TGI (KM12 colon)
15.9 µM: TGI (UACC-62 melanoma)
16.5 µM: TGI (COLO 205 colon)
19 µM: TGI (SW-620 colon)
14.8 µM: TGI (OVCAR-8 ovarian)
inactive: GI50 (SW-620 colon) 3.85 µM | GI50 (SNB-75 CNS) 1.99 µM | GI50 (M14 melanoma) 5.29 µM | GI50 (OVCAR-8 ovarian) 3.19 µM | GI50 (EKVX NSCLC) 3.26 µM | GI50 (UACC-62 melanoma) 3.35 µM | GI50 (KM12 colon) 4.94 µM | GI50 (COLO 205 colon) 4.55 µM

Nc1nc(N)c2cc(S(=O)(=O)c3cccc(C(F)(F)F)c3)ccc2n1
> 100 µM: TGI (SW-620 colon) | TGI (M14 melanoma) | TGI (OVCAR-8 ovarian) | TGI (EKVX NSCLC) | TGI (UACC-62 melanoma) | TGI (IGROV1 ovarian) | TGI (MALME-3M melanoma)
inactive: GI50 (SW-620 colon) 0.989 µM | GI50 (SNB-75 CNS) 12.9 µM | GI50 (M14 melanoma) 2 µM | GI50 (OVCAR-8 ovarian) 4.22 µM | GI50 (EKVX NSCLC) 3.32 µM | GI50 (UACC-62 melanoma) 3.41 µM | GI50 (IGROV1 ovarian) 5.28 µM | GI50 (MALME-3M melanoma) 5.74 µM
39.8 µM: TGI (SNB-75 CNS)

CCOC(=O)c1sc2nc(=S)[nH]c(NC(N)=S)c2c1C
48.4 µM: TGI (COLO 205 colon)
> 100 µM: TGI (IGROV1 ovarian)
63.3 µM: TGI (OVCAR-8 ovarian)
64.6 µM: TGI (M14 melanoma)
72.1 µM: TGI (MALME-3M melanoma)
inactive: GI50 (SW-620 colon) 23.3 µM | GI50 (SNB-75 CNS) 21.4 µM | GI50 (M14 melanoma) 26.5 µM | GI50 (OVCAR-8 ovarian) 25.4 µM | GI50 (EKVX NSCLC) 2.49 µM | GI50 (UACC-62 melanoma) 12.4 µM | GI50 (IGROV1 ovarian) 31.5 µM | GI50 (KM12 colon) 23.5 µM | GI50 (COLO 205 colon) 18.6 µM | GI50 (MALME-3M melanoma) 37 µM
52.7 µM: TGI (KM12 colon)
30.6 µM: TGI (EKVX NSCLC)
66.6 µM: TGI (SNB-75 CNS)
55.1 µM: TGI (SW-620 colon)
26.1 µM: TGI (UACC-62 melanoma)

CC1=NC2(C(=O)O)C3(C(=O)O)N=C(C)OC3(C(F)(F)F)C2(C(F)(F)F)O1 (configuration not stated)
> 100 µM: TGI (SW-620 colon) | TGI (SNB-75 CNS) | TGI (M14 melanoma) | TGI (OVCAR-8 ovarian) | TGI (EKVX NSCLC) | TGI (UACC-62 melanoma) | TGI (IGROV1 ovarian) | TGI (KM12 colon) | TGI (COLO 205 colon) | TGI (MALME-3M melanoma)

CC(C)Cn1cnc2c(N)nc3ccccc3c21
inactive: GI50 (SW-620 colon) 41.8 µM | GI50 (SNB-75 CNS) 41.4 µM | GI50 (M14 melanoma) 43.9 µM | GI50 (OVCAR-8 ovarian) 67.5 µM | GI50 (EKVX NSCLC) 26.2 µM | GI50 (UACC-62 melanoma) 38.4 µM | GI50 (IGROV1 ovarian) 51.8 µM | GI50 (KM12 colon) 56.6 µM | GI50 (COLO 205 colon) 20.7 µM | GI50 (MALME-3M melanoma) > 100 µM
> 100 µM: TGI (SW-620 colon) | TGI (SNB-75 CNS) | TGI (M14 melanoma) | TGI (OVCAR-8 ovarian) | TGI (EKVX NSCLC) | TGI (UACC-62 melanoma) | TGI (IGROV1 ovarian) | TGI (KM12 colon) | TGI (MALME-3M melanoma)
> 88.2 µM: TGI (COLO 205 colon)

CC(C)OC(=O)Nc1c([N+](=O)[O-])cc(C(F)(F)F)cc1[N+](=O)[O-]
> 100 µM: TGI (SW-620 colon) | TGI (M14 melanoma) | TGI (OVCAR-8 ovarian) | TGI (EKVX NSCLC) | TGI (UACC-62 melanoma) | TGI (IGROV1 ovarian) | TGI (KM12 colon) | TGI (COLO 205 colon) | TGI (MALME-3M melanoma)
40 µM: TGI (SNB-75 CNS)

C=CC(=O)N1CCN([C@@H](CC2CC2)c2ccc([C@H](C)Nc3ncc4c(n3)N(CC)C(=O)OC4)cc2)CC1
30.8 µM: TGI (MALME-3M melanoma)
26.7 µM: TGI (OVCAR-8 ovarian)
27.6 µM: TGI (EKVX NSCLC)
16.7 µM: TGI (SNB-75 CNS)
31.1 µM: TGI (SW-620 colon)
30.1 µM: TGI (M14 melanoma)
17.5 µM: TGI (IGROV1 ovarian)
34.6 µM: TGI (KM12 colon)
inactive: GI50 (SW-620 colon) 14.2 µM | GI50 (SNB-75 CNS) 2.06 µM | GI50 (M14 melanoma) 15.5 µM | GI50 (OVCAR-8 ovarian) 11.1 µM | GI50 (EKVX NSCLC) 14.1 µM | GI50 (UACC-62 melanoma) 12.1 µM | GI50 (IGROV1 ovarian) 4.58 µM | GI50 (KM12 colon) 15.1 µM | GI50 (COLO 205 colon) 16.9 µM | GI50 (MALME-3M melanoma) 15.9 µM
26.1 µM: TGI (UACC-62 melanoma)
36 µM: TGI (COLO 205 colon)

COc1cc(OC)c(OC)cc1/C=C/c1ccccn1
> 10 µM: TGI (SW-620 colon) | TGI (SNB-75 CNS) | TGI (M14 melanoma) | TGI (OVCAR-8 ovarian) | TGI (EKVX NSCLC) | TGI (UACC-62 melanoma) | TGI (IGROV1 ovarian) | TGI (KM12 colon) | TGI (COLO 205 colon) | TGI (MALME-3M melanoma)

CCOc1cc(/C=C/C(=O)CC(=O)/C=C/c2ccc(OC(=O)CNc3nc4ccc(OC)cc4s3)c(OCC)c2)ccc1OC(=O)CNc1nc2ccc(OC)cc2s1
34.3 µM: TGI (SNB-75 CNS)
11.7 µM: TGI (EKVX NSCLC)
12.1 µM: TGI (KM12 colon)
29.3 µM: TGI (COLO 205 colon)
inactive: GI50 (SW-620 colon) 3.78 µM | GI50 (SNB-75 CNS) 6.77 µM | GI50 (M14 melanoma) 5.18 µM | GI50 (OVCAR-8 ovarian) 2.5 µM | GI50 (EKVX NSCLC) 3.48 µM | GI50 (UACC-62 melanoma) 7.6 µM | GI50 (KM12 colon) 2.96 µM | GI50 (COLO 205 colon) 14 µM | GI50 (MALME-3M melanoma) 12.3 µM
13.2 µM: TGI (SW-620 colon)
20.3 µM: TGI (UACC-62 melanoma)
22.5 µM: TGI (M14 melanoma)
27.3 µM: TGI (MALME-3M melanoma)
6.32 µM: TGI (OVCAR-8 ovarian)
